# Reference: ChEMBL document CHEMBL1201862, “PubChem BioAssay data set” (2004)
# “And” between values parts separate entries of the source, which are not always exact repeats. Equal values may be shown once. The source made the active and inactive calls.
# Key:
# [1] = viability of uninfected HEp-2 cells – cell-based, HTS, cytotoxicity control for RSV inhibitor project, dose response (AID 2410); format: functional; settings: human respiratory syncytial virus
# [2] = target: Lysosomal acid glucosylceramidase (Homo sapiens, UniProt P04062); assay: Dose response cell-based high throughput screening assay to identify enhancers of beta-glucosidase activity. [Related pubchem assays: 784 ]; format: functional
# [3] = target: DNA damage-inducible transcript 3 protein (Mus musculus, UniProt P35639); format: functional, Cricetulus griseus
# [4] = target: T1, Apoptotic protease-activating factor 1 (Homo sapiens, UniProt O14727); format: functional
# T1 sequence (O14727 whole entry): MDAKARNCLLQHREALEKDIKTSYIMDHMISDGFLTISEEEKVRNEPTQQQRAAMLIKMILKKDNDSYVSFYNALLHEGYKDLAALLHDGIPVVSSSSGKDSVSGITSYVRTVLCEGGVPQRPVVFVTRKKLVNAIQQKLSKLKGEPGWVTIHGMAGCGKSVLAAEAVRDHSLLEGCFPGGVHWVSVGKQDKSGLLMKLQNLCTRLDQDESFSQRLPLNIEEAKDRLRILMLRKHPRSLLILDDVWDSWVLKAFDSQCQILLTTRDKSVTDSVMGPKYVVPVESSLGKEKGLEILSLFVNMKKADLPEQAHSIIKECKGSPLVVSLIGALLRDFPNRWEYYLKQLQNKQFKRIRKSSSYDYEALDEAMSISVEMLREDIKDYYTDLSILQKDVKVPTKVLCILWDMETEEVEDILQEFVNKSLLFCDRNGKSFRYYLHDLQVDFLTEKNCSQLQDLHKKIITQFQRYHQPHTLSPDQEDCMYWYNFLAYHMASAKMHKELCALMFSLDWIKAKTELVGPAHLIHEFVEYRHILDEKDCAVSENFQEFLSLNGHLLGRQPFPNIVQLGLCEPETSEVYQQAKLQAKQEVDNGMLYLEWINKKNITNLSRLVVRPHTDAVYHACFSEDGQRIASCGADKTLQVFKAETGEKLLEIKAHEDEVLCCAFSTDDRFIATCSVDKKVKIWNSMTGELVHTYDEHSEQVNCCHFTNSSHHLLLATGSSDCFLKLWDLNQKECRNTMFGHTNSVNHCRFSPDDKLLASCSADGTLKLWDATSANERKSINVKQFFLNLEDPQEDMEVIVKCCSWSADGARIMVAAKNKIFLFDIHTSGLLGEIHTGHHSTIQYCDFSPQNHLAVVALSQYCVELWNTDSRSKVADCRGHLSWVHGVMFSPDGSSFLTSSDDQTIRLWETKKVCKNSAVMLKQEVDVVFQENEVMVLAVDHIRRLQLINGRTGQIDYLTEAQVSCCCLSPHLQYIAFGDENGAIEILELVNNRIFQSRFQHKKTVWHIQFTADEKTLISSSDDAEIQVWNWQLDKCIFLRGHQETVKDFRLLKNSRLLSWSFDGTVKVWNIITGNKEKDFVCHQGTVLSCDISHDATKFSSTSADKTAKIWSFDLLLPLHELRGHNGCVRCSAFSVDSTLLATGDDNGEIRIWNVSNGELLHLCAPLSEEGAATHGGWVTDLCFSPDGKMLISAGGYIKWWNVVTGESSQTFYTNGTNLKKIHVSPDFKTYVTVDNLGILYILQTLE
# [5] = target: RNA-editing ligase 1, mitochondrial (Trypanosoma brucei brucei, UniProt P86926); assay: inhibition of trypanosome RNA editing ligase – biochemical, fluorescence, Trypanosoma brucei, dose response (AID 1117295); format: functional
# [6] = target: T2, RNA-binding protein pos-1 (Caenorhabditis elegans, UniProt G5EF15); assay: disruptors of C. elegans POS-1 RNA interaction – biochemical, fluorescence polarization, dose response (AID 1964);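 further: purified POS-1 fused to maltose binding protein made in E. coli; potency of compounds blocking POS-1 binding to fluorescent RNA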
# T2 sequence (G5EF15 whole entry): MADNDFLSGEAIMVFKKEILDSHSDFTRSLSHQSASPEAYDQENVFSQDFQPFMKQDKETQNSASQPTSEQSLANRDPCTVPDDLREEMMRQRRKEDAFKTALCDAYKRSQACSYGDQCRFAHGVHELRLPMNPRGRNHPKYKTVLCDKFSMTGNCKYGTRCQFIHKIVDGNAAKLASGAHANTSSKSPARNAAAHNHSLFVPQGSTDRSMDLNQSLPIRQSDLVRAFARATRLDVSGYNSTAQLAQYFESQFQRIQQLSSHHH
# [7] = target: T3, Runt-related transcription factor 1/Core-binding factor subunit beta (Homo sapiens, UniProt Q01196+Q13951); assay: disruptors of Runt domain/CBFb-SMMHC interaction – biochemical, FRET, Cerulean-Runt, Venus-CBFb-SMMHC, uHTS, […] (AID 1434); format: protein assay
# [8] = target: T4, Aspartyl aminopeptidase (Plasmodium falciparum 3D7, UniProt Q8I2J3)
# T4 sequence (Q8I2J3 whole entry): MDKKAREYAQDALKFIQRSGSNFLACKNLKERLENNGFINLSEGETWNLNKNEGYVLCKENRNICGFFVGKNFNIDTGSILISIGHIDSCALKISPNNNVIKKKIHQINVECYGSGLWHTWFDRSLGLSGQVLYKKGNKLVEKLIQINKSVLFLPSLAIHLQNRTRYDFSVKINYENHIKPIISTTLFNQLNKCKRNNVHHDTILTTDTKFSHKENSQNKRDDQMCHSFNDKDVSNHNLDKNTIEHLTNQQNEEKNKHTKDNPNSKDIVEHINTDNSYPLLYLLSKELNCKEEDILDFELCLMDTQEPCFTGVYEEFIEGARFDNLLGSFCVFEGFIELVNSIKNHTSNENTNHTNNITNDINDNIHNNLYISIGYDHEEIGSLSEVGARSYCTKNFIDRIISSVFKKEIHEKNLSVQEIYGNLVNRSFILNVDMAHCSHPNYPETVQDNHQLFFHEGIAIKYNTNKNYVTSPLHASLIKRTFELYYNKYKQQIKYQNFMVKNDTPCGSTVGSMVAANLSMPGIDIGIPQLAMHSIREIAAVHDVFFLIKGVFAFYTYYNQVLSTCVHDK
# [9] = target: Procathepsin L (Homo sapiens, UniProt P07711)
# [10] = target: T5, Zinc finger protein mex-5 (Caenorhabditis elegans, UniProt Q9XUB2); assay: potency of MEX-5 RNA-binding blockers – biochemical, C. elegans, fluorescence polarization, dose response (AID 1960)
# T5 sequence (Q9XUB2 whole entry): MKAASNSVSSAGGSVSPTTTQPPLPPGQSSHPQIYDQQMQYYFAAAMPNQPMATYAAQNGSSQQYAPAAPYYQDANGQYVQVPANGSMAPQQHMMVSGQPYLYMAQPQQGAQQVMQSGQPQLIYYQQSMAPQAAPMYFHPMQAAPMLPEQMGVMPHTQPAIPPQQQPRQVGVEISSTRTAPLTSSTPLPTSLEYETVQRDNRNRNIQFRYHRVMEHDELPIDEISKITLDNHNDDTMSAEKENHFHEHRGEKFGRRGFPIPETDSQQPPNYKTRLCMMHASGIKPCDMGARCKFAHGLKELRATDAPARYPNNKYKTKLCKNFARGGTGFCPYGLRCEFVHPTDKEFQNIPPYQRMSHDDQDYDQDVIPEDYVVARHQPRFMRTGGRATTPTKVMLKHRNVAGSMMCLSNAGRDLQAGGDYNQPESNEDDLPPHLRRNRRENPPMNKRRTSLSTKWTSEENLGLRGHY
# [11] = target: Large T antigen (Simian virus 40, UniProt P03070); format: functional, Betapolyomavirus macacae;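 further: Confirmatory-stage PubChem screen for compounds that inhibit SV40 T antigen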
# [12] = target: T3, Runt-related transcription factor 1/Core-binding factor subunit beta; assay: Runt domain/CBFb-SMMHC interaction disruptors – biochemical, TR-FRET (AID 1438); format: protein assay
# [13] = viability of PTEN-deleted HCT116 cells – cell-based, HCT116 PTEN knockout, dose response (AID 1047); format: functional;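 further: HCT116 colon tumor cells with PTEN knocked out; cells exposed to compound for 60 hours before readout; potency for loss of cell viability measured by luminescence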
# [14] = viability of HCT116 lacking mutant beta-catenin – cell-based, human colon tumor, dose response (AID 1045); format: functional;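 further: HCT116 colon tumor cells with beta catenin knocked out; cells exposed to compound for 60 hours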
# [15] = target: FAD-linked sulfhydryl oxidase ALR (Homo sapiens, UniProt P55789); assay: ALR-catalysed DTT oxidation blockers – biochemical, H2O2 detection, luminescence, cherry-pick, dose response (AID 493248)
# [16] = test system: Streptococcus sp. 'group A'; assay: Streptococcus pyogenes SK(-)GAS viability under kanamycin – luminescence, BacTiterGlo, confirmation, counter-screen for streptokinase expression inhibitor project, dose response (AID 1900); format: functional, organism-based
# [17] = target: T6, Streptokinase A (Streptococcus pyogenes serotype M1, UniProt P10520); assay: viability-normalized secreted streptokinase activity reduction – plasminogen activation absorbance, OD405, dose response (AID 1914); format: functional, Streptococcus pyogenes M1 GAS;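 further: secreted streptokinase activity via plasminogen activation per viability signal from cell pellet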
# T6 sequence (P10520 whole entry): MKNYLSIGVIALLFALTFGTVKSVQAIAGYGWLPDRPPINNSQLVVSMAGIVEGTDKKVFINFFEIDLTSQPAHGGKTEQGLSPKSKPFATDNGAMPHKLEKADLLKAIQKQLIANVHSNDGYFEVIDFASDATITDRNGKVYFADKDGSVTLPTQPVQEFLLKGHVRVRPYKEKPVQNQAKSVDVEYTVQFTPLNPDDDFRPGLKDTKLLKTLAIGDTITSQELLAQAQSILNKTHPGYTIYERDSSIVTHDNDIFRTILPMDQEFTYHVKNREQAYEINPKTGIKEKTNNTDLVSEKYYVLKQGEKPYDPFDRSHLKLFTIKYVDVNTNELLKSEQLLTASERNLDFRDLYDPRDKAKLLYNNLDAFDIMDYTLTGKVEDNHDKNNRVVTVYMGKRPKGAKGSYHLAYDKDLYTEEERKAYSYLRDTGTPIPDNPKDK
# [18] = test system: Streptococcus; assay: GAS UMAA2166 growth inhibition – luminescence, BacTiterGlo, counter-screen for streptokinase expression inhibitor project, dose response (AID 1915); format: functional, organism-based;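 further: potency for reduction of bacterial viability or growth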
# [19] = test system: Vero; assay: cells; format: functional; settings: Chlorocebus sabaeus
# [20] = target: Troponin, cardiac muscle (Homo sapiens, UniProt P19429+P45379+P63316); assay: Fluorescence-based biochemical high throughput dose response assay for activators of the calcium sensitivity of cardiac Regulated Thin Filaments (RTF). [Related pubchem assays (depositor defined):AID493008, AID493018, AID504382, AID504383]; format: protein-complex assay
# [21] = HEK-293T cell viability reduction – luminescence, B-cell screen hits, cytotoxicity control for BCR NF-kB inhibitor project, dose response (AID 489021); format: functional, cell-based;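 further: HEK-293T cells carrying an NF-kB luciferase reporter; cells exposed to compound for about 14 hours before viability readout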
# [22] = HPDE-C7 pancreatic duct cell viability loss – fluorescence, HTS (AID 430); format: functional, cell-based; settings: Homo sapiens
# [23] = viability loss of HPDE-C7K cells – cell-based, fluorescence, HTS, primary screen (AID 431); format: functional; settings: Homo sapiens
# [24] = Luminescence Cell-Based Dose Retest to Confirm Inhibitors of Cancer Stem Cells. [Related pubchem assays (depositor defined):AID2717, AID2721]; format: functional; settings: Homo sapiens
# [25] = target: X-box-binding protein 1 (Homo sapiens, UniProt P17861); format: functional, Cricetulus griseus;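 further: confirmatory dose-response counter-screen serving a CHOP assay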
# [26] = target: T7, Cytochrome P450 1A2 (Homo sapiens, UniProt P05177);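 further: PubChem cytochrome P450 panel assay, CYP1A2 panel member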
# T7 sequence (P05177 whole entry): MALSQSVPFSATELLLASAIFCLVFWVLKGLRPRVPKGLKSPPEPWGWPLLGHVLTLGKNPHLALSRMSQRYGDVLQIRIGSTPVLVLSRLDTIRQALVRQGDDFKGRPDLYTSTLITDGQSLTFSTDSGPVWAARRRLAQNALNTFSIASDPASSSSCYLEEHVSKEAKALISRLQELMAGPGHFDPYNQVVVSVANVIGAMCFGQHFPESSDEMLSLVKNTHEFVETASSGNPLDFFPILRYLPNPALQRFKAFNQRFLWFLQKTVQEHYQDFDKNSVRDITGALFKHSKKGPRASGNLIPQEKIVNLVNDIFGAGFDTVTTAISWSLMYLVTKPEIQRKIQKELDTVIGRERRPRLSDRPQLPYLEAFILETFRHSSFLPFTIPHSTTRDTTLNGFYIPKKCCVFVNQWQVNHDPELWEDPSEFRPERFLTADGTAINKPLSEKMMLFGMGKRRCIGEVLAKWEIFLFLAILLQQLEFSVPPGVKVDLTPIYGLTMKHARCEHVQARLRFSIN
# [27] = target: Cytochrome P450 3A4 (Homo sapiens, UniProt P08684);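 further: CYP3A4 tested as one member of a cytochrome P450 panel screen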
structure (smiles),measurement,setting,value
CCC(C)NC(=O)c1c(N)n(CC2CCCO2)c2nc3ccccc3nc12 (centres undefined),CC50,[1],20.3 µM (active)
same,EC50,[2],> 50 µM (not active)
same,Absolute IC50 (CHOP),[3],10 µM
same,IC50,[4],18.8 µM (active)
same,IC50,[5],27.7 µM (inactive)
Oc1ccc(O)c(-c2cnns2)c1,EC50,[6],> 300 µM (not active)
same,IC50,[7],33.8 µM (active)
same,IC50,[8],1.89 µM (active)
same,IC50,[9],> 59.6 µM (not active)
same,EC50,[10],6.91 µM (active)
same,IC50,[11],10 µM (active)
same,IC50,[12],20.5 µM (active)
same,EC50,[13],47.1 µM (active)
same,EC50,[14],365 µM (active)
same,AC50,[15],4.57 µM (active)
Cc1cc(=O)oc2c3c4c(cc12)OCCN4CCC3,IC50,[7],< 0.195 µM (inactive)
same,IC50,[12],> 100 µM (inactive)
O=C(CN1c2ccccc2Sc2ccccc21)NNC(=O)Nc1cccc(Cl)c1,EC50,[16],4.41 µM (active)
same,EC50,[17],> 150 µM (not active)
same,EC50,[18],18.5 µM (active)
same,Absolute IC50 (CHOP),[3],10 µM
same,CC50,[19],19 µM (active)
O=C(Nc1ccc(Cl)cn1)C1COc2ccccc2O1 (centres undefined),EC50,[20],> 71.5 µM (inactive)
CCOc1ccc(-c2nnc(SCC(=O)NC3CC3)o2)cc1,IC50,[21],> 80 µM (inactive)
Fc1ccc(-c2n[nH]cc2CN(CC2CCC2)CC2CCCO2)c(F)c1 (centres undefined),EC50,[20],> 71.5 µM (inactive)
C(=N\Nc1nc(Nc2ccccc2)nc(Nc2ccccc2)n1)/c1cccnc1,IC50,[21],41.3 µM (inactive)
O=c1[nH]c2ccccc2n1C1CCN(CCCC(c2ccc(F)cc2)c2ccc(F)cc2)CC1 [PIMOZIDE],EC50,[22],13.6 µM (active)
same,EC50,[23],18.9 µM (active)
same,EC50,[13],6.38 µM (active)
same,EC50,[14],7.54 µM (active)
same,AC50,[24],3.79 µM (active)
same,Absolute IC50 (XBP1),[25],< 10 µM
same,AC50,[26],31.6 µM (inconclusive) and 15.8 µM (inconclusive)
same,AC50,[27],inconclusive
